By IC50 is commonly meant the concentration needed to halve the response being measured.

T1 sequence (P10721 26-976): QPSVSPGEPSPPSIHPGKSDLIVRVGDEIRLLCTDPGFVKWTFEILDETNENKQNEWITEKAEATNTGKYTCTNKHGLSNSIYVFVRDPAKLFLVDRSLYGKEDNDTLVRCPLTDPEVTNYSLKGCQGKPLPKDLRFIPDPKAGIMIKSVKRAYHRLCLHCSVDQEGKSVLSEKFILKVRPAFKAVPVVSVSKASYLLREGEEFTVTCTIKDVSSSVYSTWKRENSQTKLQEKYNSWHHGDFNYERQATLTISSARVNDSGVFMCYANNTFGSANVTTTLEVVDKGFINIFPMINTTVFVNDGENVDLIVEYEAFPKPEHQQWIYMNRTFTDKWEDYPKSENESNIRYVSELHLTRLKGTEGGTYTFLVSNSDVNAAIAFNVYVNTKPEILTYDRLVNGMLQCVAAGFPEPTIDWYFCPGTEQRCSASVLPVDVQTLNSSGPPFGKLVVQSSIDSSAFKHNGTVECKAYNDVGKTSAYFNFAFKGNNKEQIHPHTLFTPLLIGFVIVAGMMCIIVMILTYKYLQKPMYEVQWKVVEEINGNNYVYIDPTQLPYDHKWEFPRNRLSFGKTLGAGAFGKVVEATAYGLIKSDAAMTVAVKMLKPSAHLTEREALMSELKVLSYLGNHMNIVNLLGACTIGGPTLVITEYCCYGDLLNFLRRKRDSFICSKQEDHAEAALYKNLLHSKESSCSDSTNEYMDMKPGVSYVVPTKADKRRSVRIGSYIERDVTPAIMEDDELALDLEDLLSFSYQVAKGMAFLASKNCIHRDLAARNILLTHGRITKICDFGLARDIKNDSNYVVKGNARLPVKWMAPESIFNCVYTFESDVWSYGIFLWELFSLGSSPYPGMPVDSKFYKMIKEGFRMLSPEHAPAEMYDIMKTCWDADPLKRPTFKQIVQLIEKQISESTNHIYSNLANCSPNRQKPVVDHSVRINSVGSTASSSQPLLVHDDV

This assay addresses T1, c-kit (Homo sapiens, UniProt P10721).
T1 construct: human Mo7e cells which endogenously express c-kit; endogenous in cells; host or cells: human Mo7e cells (SCF-dependent promegakaryocytic leukemia line)
The assay can be described thus: Mo7e cell proliferation assay (SCF dependent proliferation). The note with it: Table 1; human Mo7e cells stimulated with human recombinant SCF, 48 h, CellTiter Glo; 1% FBS (footnote). The assay is classed as cell-based. The procedure:
Compounds of Formula (I) and Formula (II) provided herein were assayed to measure their capacity to inhibit c-kit and PDGFR kinases using the appropriate assay described below: c-Kit inhibition was evaluated using the Mo7e cell proliferation assay, and PDGFR inhibition was evaluated using the Rat A10 cell proliferation assay and the Human TGHA-VSMC cell proliferation assay.
The compounds of Table 1 and Table 2 were tested for inhibition of SCF dependent proliferation using human Mo7e cells which endogenously express c-kit in a 384 well format. […] After 48 hours of incubation at 37° C., cell viability was measured by adding 25 uL of CellTiter Glo (Promega) to the cells and the luminescence was measured by a CLIPR CCD camera (Molecular Devices).
The IC50 value is given as that concentration of the test compound in question that provoke a response halfway between the baseline and maximum responses.
On to `Cc1ccn2c(C(=O)Nc3cc(-c4noc(CC[C@](C)(O)C(F)(F)F)n4)ccc3C)cnc2c1` (single isomer, unassigned) [F75], for which the IC50 came to 64 nM.
As for `Cc1ccn2c(C(=O)Nc3cc(-c4noc(CC[C@@](C)(O)C(F)(F)F)n4)ccc3C)cnc2c1` (single isomer, unassigned) [F76], the IC50 worked out at 49 nM.
As to `COP(=O)(OC)OC(C)(CCc1nc(-c2ccc(C)c(NC(=O)c3cnc4cc(C)ccn34)c2)no1)C(F)(F)F` (single isomer, unassigned) [F267], the IC50 was 56 nM.
Under `COP(=O)(OC)OC(C)(CCc1nc(-c2ccc(C)c(NC(=O)c3cnc4cc(C)ccn34)c2)no1)C(F)(F)F` (single isomer, unassigned) [F269] stands 50 nM; under `Cc1ccn2c(C(=O)Nc3cc(-c4noc(CCC(C)(OP(=O)(O)O)C(F)(F)F)n4)ccc3C)cnc2c1` (stereo in doubt) [F270, (R)-1,1,1-trifluoro-2-methyl-4-(3-(4-methyl-3-(7-methylimidazo[1,2-a]pyridine-3-carboxamido)phenyl)-1,2,4-oxadiazol-5-yl)butan-2-yl dihydrogen phosphate], 25 nM.
The same measure for `Cc1ccc(-c2noc(CCC#N)n2)cc1NC(=O)c1cnc2ccccn12` [F1]: 78 nM.
Under `Cc1ccc(-c2noc(CCNC(=O)OC(C)(C)C)n2)cc1NC(=O)c1cnc2ccccn12` [F2] stands 63 nM.
In the case of `COCCCc1nc(-c2ccc(C)c(NC(=O)c3cnc4ccccn34)c2)no1` [F3], the IC50 stood at 44 nM.
Regarding `CCN(CC)C(=O)CCc1nc(-c2ccc(C)c(NC(=O)c3cnc4ccccn34)c2)no1` [F4], the IC50 is 67 nM.
Under `CC(=O)CCc1nc(-c2ccc(C)c(NC(=O)c3cnc4ccccn34)c2)no1` [F5] stands 32 nM; under `Cc1ccc(-c2noc(CNC(=O)OC(C)(C)C)n2)cc1NC(=O)c1cnc2ccccn12` [F6], 8 nM; under `CCOC(=O)Cc1nc(-c2ccc(C)c(NC(=O)c3cnc4ccccn34)c2)no1` [F7], 87 nM.
Under `Cc1ccc(-c2noc(CCC(C)(C)O)n2)cc1NC(=O)c1cnc2ccccn12` [F8, N-(5-(5-(3-hydroxy-3-methylbutyl)-1,2,4-oxadiazol-3-yl)-2-methylphenyl)imidazo[1,2-a]pyridine-3-carboxamide] stands 63 nM; under `Cc1ccc(-c2noc(CCC(C)O)n2)cc1NC(=O)c1cnc2ccccn12` (stereo not shown) [F9, N-(5-(5-(3-hydroxybutyl)-1,2,4-oxadiazol-3-yl)-2-methylphenyl)imidazo[1,2-a]pyridine-3-carboxamide], 87 nM.
Under `CCOCCc1nc(-c2ccc(C)c(NC(=O)c3cnc4ccccn34)c2)no1` [F10] stands 42 nM.
Regarding `Cc1nc(-c2ccc(C)c(NC(=O)c3cnc4ccccn34)c2)no1` [F11], the half-maximal inhibitory concentration (IC50) turned out to be 86 nM.
The same measure for `CCOCc1nc(-c2ccc(C)c(NC(=O)c3cnc4ccccn34)c2)no1` [F12]: 49 nM; for `Cc1ccc(-c2noc([C@H](C)NC(=O)OC(C)(C)C)n2)cc1NC(=O)c1cnc2ccccn12` [F13]: 93 nM; for `CO[C@H](C)c1nc(-c2ccc(C)c(NC(=O)c3cnc4ccccn34)c2)no1` [F14]: 99 nM.
Regarding `Cc1ccc(-c2noc(CC(C)(O)C(F)(F)F)n2)cc1NC(=O)c1cnc2ccccn12` (stereo not shown) [F15], the half-inhibitory concentration (IC50) turned out to be 82 nM.
As for `Cc1ccc(-c2noc(CC(O)(C(F)(F)F)C(F)(F)F)n2)cc1NC(=O)c1cnc2ccccn12` [F16], the IC50 amounted to 22 nM.
The same measure for `Cc1ccc(-c2noc(C(CO)(CO)NS(C)(=O)=O)n2)cc1NC(=O)c1cnc2ccccn12` [F17, N-(5-(5-(1,3-dihydroxy-2-(methylsulfonamido)propan-2-yl)-1,2,4-oxadiazol-3-yl)-2-methylphenyl)imidazo[1,2-a]pyridine-3-carboxamide]: 67 nM; for `Cc1ccc(-c2noc([C@@H](C)NS(C)(=O)=O)n2)cc1NC(=O)c1cnc2ccccn12` [F18]: 98 nM.
The same measure for `Cc1ccc(-c2noc(CN(C)C(=O)OC(C)(C)C)n2)cc1NC(=O)c1cnc2ccccn12` [F19, tert-butyl (3-(3-(imidazo[1,2-a]pyridine-3-carboxamido)-4-methylphenyl)-1,2,4-oxadiazol-5-yl)methyl(methyl)carbamate]: 57 nM; for `CCS(=O)(=O)NCc1nc(-c2ccc(C)c(NC(=O)c3cnc4ccccn34)c2)no1` [F20]: 61 nM.
Consider `CCN(Cc1nc(-c2ccc(C)c(NC(=O)c3cnc4ccccn34)c2)no1)C(=O)OC(C)(C)C` [F21], for which the IC50 is 55 nM.
For `CCN(Cc1nc(-c2ccc(C)c(NC(=O)c3cnc4ccccn34)c2)no1)S(C)(=O)=O` [F22], the IC50 is 89 nM.
Regarding `CCN(Cc1nc(-c2ccc(C)c(NC(=O)c3cnc4ccccn34)c2)no1)C(=O)OC` [F23], the IC50 was 59 nM.
The same measure for `Cc1ccc(-c2noc(CNC(=O)C(F)(F)F)n2)cc1NC(=O)c1cnc2ccccn12` [F24, N-(2-methyl-5-(5-((2,2,2-trifluoroacetamido)methyl)-1,2,4-oxadiazol-3-yl)phenyl)imidazo[1,2-a]pyridine-3-carboxamide]: 56 nM.
In the case of `Cc1ccc(-c2noc(CNS(=O)(=O)C(C)C)n2)cc1NC(=O)c1cnc2ccccn12` [F25], the IC50 turned out to be 79 nM.
Under `COCCOCc1nc(-c2ccc(C)c(NC(=O)c3cnc4ccccn34)c2)no1` [F26] stands 59 nM.
Under `Cc1ccc(-c2noc(CC(=O)OC(C)(C)C)n2)cc1NC(=O)c1cnc2ccccn12` [F27, tert-butyl 2-(3-(3-(imidazo[1,2-a]pyridine-3-carboxamido)-4-methylphenyl)-1,2,4-oxadiazol-5-yl)acetate] stands 22 nM; under `Cc1ccc(-c2noc(CCOCC(F)(F)F)n2)cc1NC(=O)c1cnc2ccccn12` [F28], 7 nM.
For the molecule `CCOC(=O)NCc1nc(-c2ccc(C)c(NC(=O)c3cnc4ccccn34)c2)no1` [F29], the IC50 was determined as 80 nM.
Under `Cc1ccc(-c2noc(CNC(=O)OC(C)C)n2)cc1NC(=O)c1cnc2ccccn12` [F30] stands 61 nM.
As to `Cc1ccc(-c2noc(C[C@@H](O)C(F)(F)F)n2)cc1NC(=O)c1cnc2ccccn12` [F31], the IC50 was 58 nM.
Under `CCOCCOCc1nc(-c2ccc(C)c(NC(=O)c3cnc4ccccn34)c2)no1` [F32] stands 72 nM.
The same measure for `Cc1ccc(-c2noc(COCCOC(C)C)n2)cc1NC(=O)c1cnc2ccccn12` [F33, N-(5-(5-((2-isopropoxyethoxy)methyl)-1,2,4-oxadiazol-3-yl)-2-methylphenyl)imidazo[1,2-a]pyridine-3-carboxamide]: 81 nM.
Under `Cc1ccc(-c2noc(COCCOC(C)(C)C)n2)cc1NC(=O)c1cnc2ccccn12` [F34] stands 93 nM.
As to `Cc1ccc(-c2noc(CNC(=O)CC(F)(F)F)n2)cc1NC(=O)c1cnc2ccccn12` [F35], the IC50 came to 43 nM.
Turning to `Cc1ccc(-c2noc(CCC(C)(C)O)n2)cc1NC(=O)c1cnc2ccc(F)cn12` [F36, 6-fluoro-N-(5-(5-(3-hydroxy-3-methylbutyl)-1,2,4-oxadiazol-3-yl)-2-methylphenyl)imidazo[1,2-a]pyridine-3-carboxamide], the IC50 was found to be 87 nM.
For `COCCOCc1nc(-c2ccc(C)c(NC(=O)c3cnc4ccc(F)cn34)c2)no1` [F37], the IC50 came out at 92 nM.
Under `CCOC(=O)NCc1nc(-c2ccc(C)c(NC(=O)c3cnc4ccc(F)cn34)c2)no1` [F38] stands 47 nM.
The same measure for `Cc1ccc(-c2noc(COCC(F)(F)F)n2)cc1NC(=O)c1cnc2ccccn12` [F39]: 8 nM; for `Cc1ccc(-c2noc(CNC(=O)OCC(F)F)n2)cc1NC(=O)c1cnc2ccccn12` [F40, 2,2-difluoroethyl ((3-(3-(imidazo[1,2-a]pyridine-3-carboxamido)-4-methylphenyl)-1,2,4-oxadiazol-5-yl)methyl)carbamate]: 71 nM; for `COC(=O)NCc1nc(-c2ccc(C)c(NC(=O)c3cnc4cc(-c5cnn(CCN6CCOCC6)c5)ccn34)c2)no1` [F41]: 23 nM.
The same measure for `Cc1ccc(-c2noc(CCC(C)(C)O)n2)cc1NC(=O)c1cnc2cc(-c3ccn(C)n3)ccn12` [F42]: 9 nM; for `Cc1nc(-c2ccc(C)c(NC(=O)c3cnc4ccc(-c5cn[nH]c5)cn34)c2)no1` [F43]: 46 nM.
With `Cc1nc(-c2ccc(C)c(NC(=O)c3cnc4ccc(-c5cnn(C)c5)cn34)c2)no1` [F44], the IC50 is 25 nM.
Regarding `Cc1nc(-c2ccc(C)c(NC(=O)c3cnc4ccc(-c5cnn(CC(C)(C)O)c5)cn34)c2)no1` [F45], the IC50 was found to be 24 nM.
In the case of `Cc1ccc(Nc2noc(C(C)(C)CO)n2)cc1NC(=O)c1cnc2ccccn12` [F46, N-(5-(5-(1-hydroxy-2-methylpropan-2-yl)-1,2,4-oxadiazol-3-ylamino)-2-methylphenyl)imidazo[1,2-a]pyridine-3-carboxamide], the IC50 came out at 13 nM.
Under `Cc1nc(-c2ccc(C)c(NC(=O)c3cnc4ccc(-c5cscn5)cn34)c2)no1` [F47] stands 50 nM; under `Cc1nc(-c2ccc(C)c(NC(=O)c3cnc4ccc(-c5sc(C)nc5C)cn34)c2)no1` [F48], 7 nM.
Under `Cc1nc(-c2ccc(C)c(NC(=O)c3cnc4ccc(-c5c(C)noc5C)cn34)c2)no1` [F49] stands 53 nM; under `Cc1ccn2c(C(=O)Nc3cc(-c4noc(CCC(C)(C)O)n4)ccc3C)cnc2c1` [F50, N-(5-(5-(3-hydroxy-3-methylbutyl)-1,2,4-oxadiazol-3-yl)-2-methylphenyl)-7-methylimidazo[1,2-a]pyridine-3-carboxamide], 52 nM.
